Measurements as given in patent US8952024B2, “Herbicidal pyrimidone derivatives” (E I du Pont de Nemours and Company, priority 2009, dated 2015).

How the values were obtained:
Format in all cases: in vivo
[1] = tested on: umbrella sedge (Cyperus difformis); assay: Test B flooded paddy test; details: for Plant response rating, Flood, Sedge, Umbrella: 250 g ai/ha, flooded paddy test, visual rating on 0 to 100 scale (0 no effect, 100 complete control) after 13 to 15 days; for Plant response rating, Sedge, Umbrella: Flood (flooded paddy test), 13 to 15 days
Method in brief: (§1)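 Each compound is added to standing floodwater (3 cm above soil, maintained) in pots of 2-leaf-stage plants; greenhouse exposure lasts 13–15 d before visual comparison with controls on a 0–100 control scale.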

rice (Oryza sativa) = assay: Test B flooded paddy test; details: for Plant response rating, Flood, Rice: 250 g ai/ha, flooded paddy test, visual rating on 0 to 100 scale (0 no effect, 100 complete control) after 13 to 15 days; for Plant response rating, Rice: Flood (flooded paddy test), 13 to 15 days
Method in brief: as §1

[2] = tested on: ducksalad (Heteranthera limosa); assay: Test B flooded paddy test; details: for Plant response rating, Flood, Ducksalad: 250 g ai/ha, flooded paddy test, visual rating on 0 to 100 scale (0 no effect, 100 complete control) after 13 to 15 days; for Plant response rating, Ducksalad: Flood (flooded paddy test), 13 to 15 days
Method in brief: as §1

[3] = tested on: barnyardgrass (Echinochloa crus-galli); assay: Test B flooded paddy test; details: for Plant response rating, Flood, Barnyardgrass: 250 g ai/ha, flooded paddy test, visual rating on 0 to 100 scale (0 no effect, 100 complete control) after 13 to 15 days; for Plant response rating, Barnyardgrass: Flood (flooded paddy test), 13 to 15 days
Method in brief: as §1

[4] = tested on: wheat (Triticum aestivum); assay: Test A pre-/postemergence plant response
Method in brief: (§2)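 Visually rated 0–100 injury (100 = complete control) versus untreated plants, ~10 days in greenhouse. Application pre- (soil spray, loam/sand) and postemergence (2–10 cm, 1–2 leaf stage), same timepoint.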

[5] = tested on: morningglory (Ipomoea spp.); assay: Test A pre-/postemergence plant response
Method in brief: as §2

[6] = tested on: giant foxtail (Setaria faberii); assay: Test A pre-/postemergence plant response
Method in brief: as §2

corn (Zea mays) = assay: Test A pre-/postemergence plant response
Method in brief: as §2

[7] = tested on: pigweed (Amaranthus retroflexus); assay: Test A pre-/postemergence plant response
Method in brief: as §2

[8] = tested on: velvetleaf (Abutilon theophrasti); assay: Test A pre-/postemergence plant response
Method in brief: as §2

[9] = tested on: large crabgrass (Digitaria sanguinalis); assay: Test A pre-/postemergence plant response
Method in brief: as §2

[10] = tested on: barnyardgrass (Echinochloa crus-galli); assay: Test A pre-/postemergence plant response
Method in brief: as §2

[11] = 31 g ai/ha, scale of 0 to 100 where 0 is no effect and 100 is complete control
[12] = 62 g ai/ha, scale of 0 to 100 where 0 is no effect and 100 is complete control
[13] = 125 g ai/ha, scale 0 to 100, 0 is no effect, 100 is complete control
[14] = Postemergence, 125 g ai/ha, visual injury, 0 to 100 scale (0 no effect, 100 complete control), approx. ten days
[15] = Postemergence, 500 g ai/ha, 0 to 100 scale, 0 = no effect, 100 = complete control, approx. ten days
[16] = Preemergence, 125 g ai/ha, 0 to 100 scale, 0 = no effect, 100 = complete control
[17] = Preemergence, 500 g ai/ha, visual injury, 0 to 100 scale (0 no effect, 100 complete control), approx. ten days
[18] = Flood, 31 g ai/ha, scale 0 to 100 (0 no effect, 100 complete control)
[19] = Postemergence, 125 g ai/ha, 0 to 100 scale where 0 is no effect and 100 is complete control

O=C1CCCC(O)=C1C(=O)c1cnc(-c2ccccc2)n(-c2ccc(F)cc2F)c1=O [Compound 57]
Plant response rating, Flood, Sedge, Umbrella [1]: 75
Plant response rating, Sedge, Umbrella [1, 11]: 0
Plant response rating, Sedge, Umbrella [1, 12]: 0
Plant response rating, Sedge, Umbrella [1, 13]: 50
Plant response rating, Flood, Rice (rice (Oryza sativa)): 25
Plant response rating, Rice (rice (Oryza sativa); [11]): 0
Plant response rating, Rice (rice (Oryza sativa); [12]): 0
Plant response rating, Rice (rice (Oryza sativa); [13]): 15
Plant response rating, Flood, Ducksalad [2]: 60
Plant response rating, Ducksalad [2, 11]: 0
Plant response rating, Ducksalad [2, 12]: 0
Plant response rating, Ducksalad [2, 13]: 40
Plant response rating, Flood, Barnyardgrass [3]: 25
Plant response rating, Barnyardgrass [3, 11]: 0
Plant response rating, Barnyardgrass [3, 12]: 0
Plant response rating, Barnyardgrass [3, 13]: 20
Wheat plant response rating [4, 14]: 0
Plant response rating, Wheat [4, 15]: 10
Plant response rating, Wheat [4, 16]: 0
Plant response rating, Wheat [4, 17]: 0
Morningglory plant response rating [5, 14]: 50
Plant response rating, Morningglory [5, 15]: 60
Plant response rating, Morningglory [5, 16]: 20
Plant response rating, Morningglory [5, 17]: 80
Foxtail, Giant plant response rating [6, 14]: 80
Plant response rating, Foxtail, Giant [6, 15]: 90
Plant response rating, Foxtail, Giant [6, 16]: 70
Plant response rating, Foxtail, Giant [6, 17]: 90
Corn plant response rating (corn (Zea mays); [14]): 0
Plant response rating, Corn (corn (Zea mays); [15]): 40
Plant response rating, Corn (corn (Zea mays); [16]): 0
Plant response rating, Corn (corn (Zea mays); [17]): 0
Pigweed plant response rating [7, 14]: 90
Plant response rating, Pigweed [7, 15]: 100
Plant response rating, Pigweed [7, 16]: 90
Plant response rating, Pigweed [7, 17]: 100
Velvetleaf plant response rating [8, 14]: 100
Plant response rating, Velvetleaf [8, 15]: 100
Plant response rating, Velvetleaf [8, 16]: 80
Plant response rating, Velvetleaf [8, 17]: 100
Crabgrass, Large plant response rating [9, 14]: 80
Plant response rating, Crabgrass, Large [9, 15]: 90
Plant response rating, Crabgrass, Large [9, 16]: 90
Plant response rating, Crabgrass, Large [9, 17]: 100
Barnyardgrass plant response rating [10, 14]: 70
Plant response rating, Barnyardgrass [10, 15]: 90
Plant response rating, Barnyardgrass [10, 16]: 40
Plant response rating, Barnyardgrass [10, 17]: 90

O=C1CCCC(O)=C1C(=O)c1cnc(C2CCCCC2)n(-c2ccccc2)c1=O [Compound 106]
Plant response rating, Flood, Sedge, Umbrella [1]: 0
Plant response rating, Sedge, Umbrella [1, 12]: 0
Plant response rating, Sedge, Umbrella [1, 13]: 0
Sedge, Umbrella plant response rating [1, 18]: 0
Plant response rating, Flood, Rice (rice (Oryza sativa)): 20
Plant response rating, Rice (rice (Oryza sativa); [12]): 0
Plant response rating, Rice (rice (Oryza sativa); [13]): 20
Rice plant response rating (rice (Oryza sativa); [18]): 0
Plant response rating, Flood, Ducksalad [2]: 0
Plant response rating, Ducksalad [2, 12]: 0
Plant response rating, Ducksalad [2, 13]: 0
Ducksalad plant response rating [2, 18]: 0
Plant response rating, Flood, Barnyardgrass [3]: 15
Plant response rating, Barnyardgrass [3, 12]: 0
Plant response rating, Barnyardgrass [3, 13]: 0
Barnyardgrass plant response rating [3, 18]: 0
Plant response rating, Wheat [4, 19]: 0
Plant response rating, Wheat [4, 15]: 0
Plant response rating, Wheat [4, 16]: 0
Plant response rating, Wheat [4, 17]: 0
Plant response rating, Morningglory [5, 19]: 100
Plant response rating, Morningglory [5, 15]: 100
Plant response rating, Morningglory [5, 16]: 50
Plant response rating, Morningglory [5, 17]: 80
Plant response rating, Foxtail, Giant [6, 19]: 20
Plant response rating, Foxtail, Giant [6, 15]: 60
Plant response rating, Foxtail, Giant [6, 16]: 40
Plant response rating, Foxtail, Giant [6, 17]: 70
Plant response rating, Corn (corn (Zea mays); [19]): 0
Plant response rating, Corn (corn (Zea mays); [15]): 10
Plant response rating, Corn (corn (Zea mays); [16]): 0
Plant response rating, Corn (corn (Zea mays); [17]): 0
Plant response rating, Pigweed [7, 19]: 80
Plant response rating, Pigweed [7, 15]: 100
Plant response rating, Pigweed [7, 16]: 80
Plant response rating, Pigweed [7, 17]: 90
Plant response rating, Velvetleaf [8, 19]: 100
Plant response rating, Velvetleaf [8, 15]: 100
Plant response rating, Velvetleaf [8, 16]: 40
Plant response rating, Velvetleaf [8, 17]: 60
Plant response rating, Crabgrass, Large [9, 19]: 40
Plant response rating, Crabgrass, Large [9, 15]: 70
Plant response rating, Crabgrass, Large [9, 16]: 70
Plant response rating, Crabgrass, Large [9, 17]: 80
Plant response rating, Barnyardgrass [10, 19]: 10
Plant response rating, Barnyardgrass [10, 15]: 50
Plant response rating, Barnyardgrass [10, 16]: 10
Plant response rating, Barnyardgrass [10, 17]: 50
